Test results from paper PMC10182041, “A first-in-class inhibitor of Hsp110 molecular chaperones of pathogenic fungi” (Nature Communications, 2023).

Assays:
[1] = target: T1, Sse1 (Saccharomyces cerevisiae, UniProt P32589); assay: reduction of ATP-FAM binding to purified Sse1, fluorescence polarization; type: biochemical
T1 sequence (P32589 1-693): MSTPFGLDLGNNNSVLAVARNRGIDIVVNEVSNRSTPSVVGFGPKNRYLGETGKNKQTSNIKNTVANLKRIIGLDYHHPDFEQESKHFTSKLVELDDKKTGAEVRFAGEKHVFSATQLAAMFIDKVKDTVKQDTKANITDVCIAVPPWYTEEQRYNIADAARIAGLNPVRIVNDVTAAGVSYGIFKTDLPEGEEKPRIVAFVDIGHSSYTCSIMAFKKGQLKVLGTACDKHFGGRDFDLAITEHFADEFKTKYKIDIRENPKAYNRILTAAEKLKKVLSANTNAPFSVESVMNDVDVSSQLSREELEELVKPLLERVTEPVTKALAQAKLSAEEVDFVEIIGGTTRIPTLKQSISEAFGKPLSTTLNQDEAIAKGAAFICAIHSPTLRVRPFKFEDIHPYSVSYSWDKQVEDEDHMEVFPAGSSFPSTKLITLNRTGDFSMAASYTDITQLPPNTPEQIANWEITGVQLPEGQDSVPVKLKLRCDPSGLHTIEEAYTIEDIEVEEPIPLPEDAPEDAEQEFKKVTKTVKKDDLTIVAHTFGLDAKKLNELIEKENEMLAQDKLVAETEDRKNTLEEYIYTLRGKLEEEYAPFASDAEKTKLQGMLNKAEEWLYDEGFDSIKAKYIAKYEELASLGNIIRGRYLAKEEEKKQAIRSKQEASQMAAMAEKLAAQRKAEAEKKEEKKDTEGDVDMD

[2] = target: Msi3 (Candida albicans, UniProt Q96VB9); assay: IC50 from the luciferase holdase assay; type: biochemical
Msi3 (Candida albicans, UniProt Q96VB9), sequence (Q96VB9 whole entry): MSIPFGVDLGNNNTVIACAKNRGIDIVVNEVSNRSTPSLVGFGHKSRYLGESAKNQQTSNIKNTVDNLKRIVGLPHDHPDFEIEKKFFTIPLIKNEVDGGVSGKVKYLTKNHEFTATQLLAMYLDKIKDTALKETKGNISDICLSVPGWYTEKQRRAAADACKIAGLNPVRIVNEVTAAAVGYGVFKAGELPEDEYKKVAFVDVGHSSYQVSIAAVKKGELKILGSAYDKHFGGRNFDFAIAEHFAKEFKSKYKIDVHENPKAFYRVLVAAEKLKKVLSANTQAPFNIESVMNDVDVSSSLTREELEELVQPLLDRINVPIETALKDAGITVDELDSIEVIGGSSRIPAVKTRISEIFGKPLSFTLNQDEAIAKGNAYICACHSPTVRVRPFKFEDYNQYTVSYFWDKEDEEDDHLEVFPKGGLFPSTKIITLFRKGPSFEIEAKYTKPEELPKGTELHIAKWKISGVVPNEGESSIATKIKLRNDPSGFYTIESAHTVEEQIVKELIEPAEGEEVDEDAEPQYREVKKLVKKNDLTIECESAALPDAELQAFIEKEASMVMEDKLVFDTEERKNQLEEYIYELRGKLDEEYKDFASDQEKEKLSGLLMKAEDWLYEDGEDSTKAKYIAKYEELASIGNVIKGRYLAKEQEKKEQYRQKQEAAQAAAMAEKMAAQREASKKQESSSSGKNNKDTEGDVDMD

[3] = target: Msi3 (Candida albicans, UniProt Q96VB9, I164D); assay: luciferase aggregation (holdase) assay at OD320 with purified mutant; type: biochemical
Msi3 (Candida albicans, UniProt Q96VB9, I164D), sequence (Q96VB9 whole entry I164D): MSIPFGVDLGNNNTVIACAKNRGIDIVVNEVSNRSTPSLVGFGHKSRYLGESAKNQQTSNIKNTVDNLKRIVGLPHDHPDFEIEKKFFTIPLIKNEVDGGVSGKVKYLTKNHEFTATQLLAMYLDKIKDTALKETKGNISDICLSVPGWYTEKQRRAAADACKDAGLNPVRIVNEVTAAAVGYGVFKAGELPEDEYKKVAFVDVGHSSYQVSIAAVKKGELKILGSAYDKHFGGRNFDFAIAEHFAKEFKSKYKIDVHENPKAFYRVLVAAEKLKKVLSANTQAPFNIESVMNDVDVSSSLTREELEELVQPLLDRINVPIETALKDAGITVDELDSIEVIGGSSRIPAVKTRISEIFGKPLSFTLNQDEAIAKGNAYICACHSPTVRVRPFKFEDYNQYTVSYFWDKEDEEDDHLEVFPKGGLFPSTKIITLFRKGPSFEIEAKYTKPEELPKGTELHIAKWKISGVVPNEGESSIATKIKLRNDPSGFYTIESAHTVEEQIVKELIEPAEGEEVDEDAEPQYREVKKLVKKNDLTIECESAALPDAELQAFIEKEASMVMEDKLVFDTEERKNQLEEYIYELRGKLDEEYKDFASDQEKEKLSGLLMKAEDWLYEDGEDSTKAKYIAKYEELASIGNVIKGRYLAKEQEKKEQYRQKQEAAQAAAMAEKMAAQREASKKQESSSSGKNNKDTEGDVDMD

[4] = target: Ssa1 (Saccharomyces cerevisiae, UniProt P10591); assay: displacement of pre-bound ATP-FAM, fluorescence polarization; type: binding
Ssa1, sequence (P10591 2-642): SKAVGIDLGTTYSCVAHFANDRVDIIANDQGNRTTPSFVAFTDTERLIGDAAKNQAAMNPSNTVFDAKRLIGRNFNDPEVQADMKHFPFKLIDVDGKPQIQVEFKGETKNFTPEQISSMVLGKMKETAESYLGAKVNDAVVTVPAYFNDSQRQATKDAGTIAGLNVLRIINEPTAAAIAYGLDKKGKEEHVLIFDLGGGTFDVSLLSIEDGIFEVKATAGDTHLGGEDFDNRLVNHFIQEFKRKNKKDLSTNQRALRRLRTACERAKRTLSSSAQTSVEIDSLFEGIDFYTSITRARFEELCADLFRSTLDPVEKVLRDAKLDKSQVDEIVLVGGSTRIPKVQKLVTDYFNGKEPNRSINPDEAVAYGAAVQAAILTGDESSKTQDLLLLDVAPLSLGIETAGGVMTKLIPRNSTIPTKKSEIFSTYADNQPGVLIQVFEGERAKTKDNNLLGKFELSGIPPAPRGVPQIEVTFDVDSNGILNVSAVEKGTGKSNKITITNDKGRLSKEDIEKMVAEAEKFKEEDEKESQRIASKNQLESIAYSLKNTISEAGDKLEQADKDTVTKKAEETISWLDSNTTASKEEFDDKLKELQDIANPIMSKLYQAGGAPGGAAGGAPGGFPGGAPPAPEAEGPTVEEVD

SMILES | reduction of ATP-FAM binding to purified Sse1, fluorescence polarization [1] | IC50 [2] [µM] | luciferase aggregation (holdase) assay at OD320 with purified mutant [3] | displacement of pre-bound ATP-FAM, fluorescence polarization [4]
Cc1cccc(COc2nc3c(cc2-c2nc(N)cc(N)n2)c(C)nn3-c2ccccc2)c1 [2H, HLQ2H] | 2H showed a similar inhibition on Sse1 (Fig. S1a), the major Hsp110 from S. cerevisiae | 5.02 ± 0.35 | A similar inhibition of holdase activity was observed for this mutant when treated with 2H (Fig. S6a) | 
Nc1ncnc2c1ncn2[C@@H]1O[C@H](COP(=O)(O)OP(=O)(O)OP(=O)(O)O)[C@@H](O)[C@H]1O [ATP] |  |  |  | suggesting that the pre-bound ATP-FAM was slowly replaced by the regular ATP
